The values below come from patent publication US10697019B2, “Method of diagnosis and prognosis” (IMPERIAL COLLEGE INNOVATIONS LIMITED, priority 2011, dated 2020).

The subject of the experiment is panel of 29 cancer cell lines. Kind of experiment: [3H]thymidine incorporation assay of Z-DTP-induced killing, correlated with Gadd45β mRNA expression (qRT-PCR). In kind it is cell-based. Conditions: 10 μM Z-DTP2 for 144 hrs, Pearson correlation p<0.01. The source says: The significance of the correlation co-efficient between the two parameters is p<0.01 (Pearson correlation as calculated by GraphPad software).
For example, primary cell from multiple myeloma patients can be analysed for levels of Gadd45β expression, and patients with high levels of this expression can be deemed as those who will receive the most benefit from treatment with Gadd45β inhibitors.
In order to determine the basis for the different sensitivity of tumour cell lines to Z-DTP-induced killing, we measured levels of Gadd45β expression in a panel of 29 tumour cell lines or different tissues of origin by using quantitative real-time polymerase chain reaction (qRT-PCT) and correlated these levels with the degree of susceptibility of these cell lines to the cytotoxic activity of Z-DTPs. […] Experimental Ct values were normalized to β-actin, and relative mRNA expression calculated versus a reference sample (i.e. mRNA from HEK-293T cells). The sensitivity of cancer cell lines to Z-DTP-induced killing was analysed as described above by performing [^3H]thymidine incorporation assays after treatment of the cells with 10 μM of Z-DTP2 for 144 hrs. […] The significance of the correlation coefficient between the 2 parameters' domain was calculated by Pearson correlation, which quantifies the association between two variables, using the GraphPad software.
Background: Incorporation of labelled thymidine or its analogues reports DNA synthesis.

[ ]: non-standard residue; d: D form. The star is where a group is joined. Cbz = O=C(OCc1ccccc1)*

In the case of “Z-DTP2: tetrapeptide Tyr-Glu-Arg-Phe, amino acids in the D configuration, NH2 group at the C terminal, benzyloxycarbonyl group at the N terminal; specific Gadd45β inhibitor (Cbz-[dY][dE][dR][dF]-NH2)”, the “cancer cell sensitivity to Z-DTP-induced killing versus levels of endogenous Gadd45β expression” value is given as “correlates with a very high degree of statistical significance”.
